Consider six compounds from US11433068B2, “Treatment of cancers having alterations within the SWI/SNF chromatin remodeling complex” (THE GENERAL HOSPITAL CORPORATION, priority 2016, dated 2022).

The subject of experiment [1] is ARID-deficient LOX-IMVI cell line. Kind of experiment: Combination therapy heatmaps, cell viability, endogenous ARID-deficient melanoma lines (FIG. 9). The experiment is classed as cell-based. The note with it: G9a inhibitor in combination with HDAC inhibitor SAHA; LOX-IMVI compared to ARID wildtype A375. An excerpt:
FIG. 9 summarizes the combination therapy on endogenous ARID-deficient melanoma cell lines.

In experiment [2] the test system is ARID2-deficient cells. Kind of experiment: Selective susceptibility of ARID2-knockdown melanoma lines to G9a inhibitors (FIG. 3). The experiment is classed as cell-based. The following applies: ARID2-knockdown of two different melanoma lines.
In experiment [3] the test system is ARID2-deficient melanomas UACC62 cells. Briefly: Quantification of cell number using crystal violet staining (FIGS. 4A, 4B). The experiment is classed as cell-based.
The test system of experiment [4] is melanoma cell lines (n=22). Briefly: LD50 of melanoma cell lines versus ARID2 mutational status (FIGS. 5A, 5B). The experiment is classed as cell-based. The following applies: 22 melanoma cell lines; ARID2 mutant vs other lines. From the text: LD50 value of each melanoma cell line plotted for the two G9a inhibitors UNC0638 and BIX-01294. (n=22). ARID2 mutant cell lines indicated in closed circles.

The test system of experiment [5] is H3K9. Kind of experiment: Histone western blot of cells treated with G9a inhibitors (FIGS. 6A, 6B). The format is cell-based. The note with it: UACC257 cell line. An excerpt:
(§1) The G9a and EZH2 methyltransferases are known to target H3K9 and H3K27, respectively.
Background: In western blotting, separated proteins are transferred to a membrane and probed.

Experiment [6] relates to ARID2-deficient cell lines. Briefly: Combination therapy heatmaps, cell viability, isogenically matched engineered melanoma lines (FIG. 8). The experiment is classed as cell-based. The note with it: ARID2-deficient vs matched lines. From the text:
FIG. 8 summarizes the combination therapy on isogenically matched engineered ARID-deficient melanoma cell lines. Heatmaps showing cell viability after treatment with the G9a inhibitor BIX-01294 in combination with other small molecule inhibitors (bromodomain inhibitor JQ1 and BRAF inhibitor PLX).

Experiment [7] deals with melanoma cell and melanocyte. Kind of experiment: Viability by cell-titer Glo assay (FIGS. 14A, 14B). The format is cell-based. The following applies: varying amounts; melanoma cells and melanocytes. As for the experimental part:
FIGS. 14A and 14B show melanoma cell and melanocyte are sensitive to G9a inhibitors. Indicated cell types were treated with varying amounts of (FIG. 14A) UNC0638 or (FIG. 14B) BIX01294 and viability was measured by cell-titer Glo assay.

Experiment [8] deals with G9a-amplified melanoma cell line, K029. Kind of experiment: Tumor growth of subcutaneously inoculated K029 cells in SCID mice (FIG. 16). The experiment is classed as in vivo. The note with it: K029 subcutaneous in SCID mice; 2.5 mg/kg daily ip from 8 days after inoculation. The procedure: G9a-amplified melanoma cell line, K029, was subcutaneously inoculated on SCID mice (5×10^6 cells/[…] PBS). Vehicle (10% DMSO/PBS) or UNC0642 (2.5 mg/kg) was daily administrated by ip injection 8 days after K029 inoculation.

Experiment [9] deals with H3K27. Briefly: Histone western blot of cells treated with EZH2 inhibitors (FIGS. 6A, 6B). The experiment is classed as cell-based. The following applies: UACC257 cell line.
Text: as §1

For experiment [10], the system named is UACC257 human melanoma cells with ARID2 deficiency. Kind of experiment: Dose response of melanoma cells to the G9a inhibitor (FIG. 2). The note with it: UACC257 shARID2 knockdown vs isogenically matched control (shLuc) cells. The format is cell-based. As for the experimental part: ARID2 deficiency is simulated the cells using an RNAi shARID2 to knockdown expression of ARID2. For control, the same cell lines are treated with a control RNAi shLuc instead of shARID2.

Setting [11] is: BIX-01294 in combination with bromodomain inhibitor JQ1.

For `O=C(CCCCCCC(=O)Nc1ccccc1)NO` [SAHA, suberoylanilide hydroxamic acid], in [1], the “drug synergy (cell viability)” value is on record as “selectively enhanced”.

For the compound `COc1cc2nc(N3CCCN(C)CC3)nc(NC3CCN(Cc4ccccc4)CC3)c2cc1OC` [BIX-01294], the “sensitivity of ARID2-knockdown cells to G9a inhibitors” value in [2] is “sensitive”. Further, the “cell number (crystal violet staining)” value in experiment [3] is reported as “selective vulnerability”. Further, in [4], the “sensitivity (LD50) versus ARID2 mutation” value is reported as “ARID2 mutation predicts the sensitivity”. Further, the “methylation marks at H3K9 (histone western blot)” value in experiment [5] is “selective and specific decrease in the methylation marks”. Moreover, the “drug synergy (cell viability)” value in experiment [6] (BIX-01294 in combination with BRAF inhibitor PLX), in experiment [6] (setting [11]) and in [1] was “selectively enhanced” in each case. Also, in [7], the “viability (cell-titer Glo)” value was “sensitive”.

On to `COc1cc2c(NC3CCN(C(C)C)CC3)nc(N3CCC(F)(F)CC3)nc2cc1OCCCN1CCCC1` [UNC0642], for which the tumor growth entry in experiment [8] was “effectively suppress tumor growth”.

For the compound `CC[C@H](C)n1cc(C)c2c(C(=O)NCc3c(C)cc(C)[nH]c3=O)cc(-c3ccc(N4CCNCC4)nc3)cc21` [GSK126], the “methylation marks at H3K27 (histone western blot)” value in experiment [9] is “selective and specific decrease in the methylation marks”.

Regarding `COc1cc2c(NC3CCN(C(C)C)CC3)nc(C3CCCCC3)nc2cc1OCCCN1CCCC1` [UNC0638], in experiment [10], the “susceptibility to the G9a inhibitor (dose response)” value was “more susceptible”. The “sensitivity of ARID2-knockdown cells to G9a inhibitors” value in experiment [2] is “sensitive”. In addition, the “cell number (crystal violet staining)” value in experiment [3] is given as “selective vulnerability”. In addition, the “sensitivity (LD50) versus ARID2 mutation” value in experiment [4] is given as “ARID2 mutation predicts the sensitivity”. Also, in experiment [5], the “methylation marks at H3K9 (histone western blot)” value was “selective and specific decrease in the methylation marks”. The “drug synergy (cell viability)” value in experiment [1] is “selectively enhanced”. The “viability (cell-titer Glo)” value in [7] was “sensitive”.

For the compound `Cc1sc2c(c1C)C(c1ccc(Cl)cc1)=N[C@@H](CC(=O)OC(C)(C)C)c1nnc(C)n1-2` [JQ1], the “drug synergy (cell viability)” value in experiment [6] (setting [11]) was “selectively enhanced”.
